Assay in all cases: In vitro proliferation inhibition of compounds of formula (GH), CCK8, 6 days
Type in all cases: cell-based, human

Assay [1] has as its system A549 tumor cells.
Procedure: (§1) The object of this experiment is to test the in vitro killing activity of the compounds of the formula (GH) of the present disclosure on A549 tumor cells (human lung cancer cells, Beijing Tongren Hospital), SK-BR-3 tumor cells (human breast cancer cells, Wuhan Punosai, Cat. No. CL-0211) and NCI-N87 tumor cells (human gastric cancer cells, Cell Resource Center, Institute of Basic Medical Sciences, Chinese Academy of Medical Sciences, Cat. No. 3111C0001CCC000481). The cells were treated with different concentrations of the compounds in vitro and cultured for 6 days, then the in vitro activity of the test compounds was evaluated based on IC50 values by measuring the number of viable cells using CCK8 (Cell Counting Kit-8, Cat. No. TS547) reagent.
(§2) Taking the test method of in vitro killing activity against A549 cells, SK-BR-3 cells and NCI-N87 cells as an example, the test was carried out as follows. […] After the cells were completely digested, 10 mL cell culture medium containing 10% FBS was added, the digested cells were eluted, centrifuged at 300 g for 5 min, and the supernatant was discarded. […]
In assay [2] the test system is SK-BR-3 tumor cells.
Procedure: as §1, §2
For assay [3], the system named is NCI-N87 tumor cells.
Procedure: as §1, §2
Where [4] appears, read: conclusion in words, comparison with Reference 1 at the same dose.

This is an account of results in patent publication EP4763228A1, “PENTACYCLIC ACTIVE COMPOUND AND CONJUGATE THEREOF AND USE THEREOF” (Keymed Biosciences (Chengdu) Co., Ltd., priority 2023, dated 2025).

For orientation: IC50 means the point on the concentration scale where inhibition reaches its midpoint. A low value points to greater potency.

SMILES strings stand for the structures.

In the case of `O=C1OCc2c(cc3n(c2=O)Cc2c-3nc3cc4c(cc3c2CCCCO)OCO4)[C@@]1(O)CC1CC1` [Compound 3], the half-inhibitory concentration (IC50) in assay [1] (Homo sapiens, 144 h, A549 cells, 6 days, CCK8, 2% FBS) is 1.68 nM; in assay [2] (Homo sapiens, 144 h, SK-BR-3 cells, 6 days, CCK8, 2% FBS) it was 0.24 nM; in assay [3] (Homo sapiens, 144 h, NCI-N87 cells, 6 days, CCK8, 2% FBS) it was 0.44 nM. Also, in assay [1] (setting [4]), the “inhibitory effect on the proliferation of A549 cells in vitro” value is “significantly higher inhibitory effect”. The “inhibitory effect on the proliferation of SK-BR-3 cells in vitro” value in assay [2] (setting [4]) was “significantly higher inhibitory effect”. The “inhibitory effect on the proliferation of NCI-N87 cells in vitro” value in assay [3] (setting [4]) is given as “significantly higher inhibitory effect”.
